Assay results as given in patent US9400281B2, “Method of screening of therapeutic agents for K-Ras mutant driven cancers” (PUSAN NATIONAL UNIVERSITY INDUSTRY-UNIVERSITY COOPERATION …, priority 2008, dated 2016).
“And” between values parts separate entries of the source, which are not always exact repeats. Identical values can stand only once. Like-named read-outs stand apart in the source and are kept apart here.

Columns and labels:
[1] = test system: K-Ras mutant cancer cell lines HCT116; test: Western blot of p53 and p21 expression in K-Ras mutant HCT116 cells; type: cell-based; settings: for fold induction at 10 µM: Homo sapiens, HCT-116, HCT116, 10 μM; for Protein expression ratio of compound to control, p21 / Protein expression ratio of compound to control, p53: HCT116, 10 μM, DMSO control = 1.0
Description: To confirm whether the compounds prepared according to Examples 1 to 5 are effective for inhibiting SNAIL-p53 binding at cell level, the compound was treated into K-Ras mutant cancer cell lines HCT116 and results were analyzed by western blotting.
Oncogenic K-ras suppresses the p53 activity through SNAIL. In the cell line HCT116, SNAIL is always expressed by K-Ras mutation and bound to p53 to suppress normal activity of p53. If the K-Ras mutant cancer cell line HCT116 is treated with a compound for suppressing SNAIL-p53 binding, p53 is normally activated and more expressed, and target genes of p53 are induced.
First, western blotting was performed to detect expression of p53 and p21, which is a target gene of p53. All cell lines used in the present invention were obtained from ATCC, and maintained in 10% FBS-containing RPMI-1640 or DMEM. Protein was extracted with RIPA buffer solution and a membrane loaded with cell lysate through typical SDS-PAGE and gel transfer method was prepared. After blocking with 5% non-fat dry milk, the membrane was subjected into a typical western blot procedure with an antibody corresponding to each gene. Antibodies used herein were obtained from Cell signaling, SantaCruz. p53 activity was confirmed by expression of p21, which is a target gene of p53.

[2] = test system: SNAIL-p53 binding; test: GST pull down assay of SNAIL-p53 binding (Experimental Example 2); parameters: species or system human; settings: FIG. 21
Description: GST pull down assay is a method for identifying a binding degree of two proteins. GST-fused SNAIL protein and p53 recombinant protein were prepared and treated with the compound 5o or 7a to identify a binding degree of GST-SNAIL protein and p53 protein. […] If MDM2 is over-expressed, proteolysis of p53 is induced to suppress apoptosis occurring through target genes of p53, and an […] of cells is induced. Although MDM2 is a representative control factor of p53, MDM2 is not applied to K-Ras mutant disease or mutant p53 containing disease.
To perform GST pull down assay, three human SNAIL fragments (residues 1-90, 91-112, and 113-264) and p53 fragments (1-93 and 93-292) were expressed in E. coli as GST-fusion protein. Each of the fragments was loaded on to GSH-agarose, washed, and then eluted using a buffer containing 20 mM reduced glutathione. The eluted fractions were purified using an anionexchange chromatography (HitrapQ). The recombinant human p53 protein (residues 94-292) was expressed in E. coli using the vector pET28A which contains a hexa-histidine tag at the C terminus. The p53 protein including the hexa-histidine tag was purified using Ni-NTA affinity and a size exclusion chromatography (Superdex 200). To confirm the direct binding between p53 and SNAIL, agarose-bead conjugated GST or GST-SNAIL was incubated with His-p539 (histidine-p53) in PBS for 45 minutes at 4° C.. After washing with PBS, the precipitated protein was subjected into SDS-PAGE and western blotting.

[3] = test system: A549 (K-Ras mutant cancer cell line); test: Cell death rate by tryphan blue cell counting, A549; type: cell-based; settings: A549 (A546 [sic])
Description: (§1) To confirm that the p53 induction of the compounds is related to K-Ras, A549 and HCT116, which are K-Ras mutant cancer cell lines, and MKN45, which is K-Ras wild type cancer cell line, were used.

[4] = test system: HCT116 (K-Ras mutant cancer cell line); test: Cell death rate by tryphan blue cell counting, HCT116; type: cell-based
[5] = test system: MKN45 (K-Ras wild type cancer cell line); test: Cell death rate by tryphan blue cell counting, MKN45; type: cell-based
Description: as §1

[6] = test system: MDA-MB 468; test: Western blot of p21 expression in mutant p53 MDA-MB 468 cells; type: cell-based, human; settings: for Expression ratio of gene to control, p21: DMSO control = 1.0
[7] = DMSO control = 1.0, read-out: Protein expression ratio of compound to control, p21
[8] = DMSO control = 1.0, read-out: Protein expression ratio of compound to control, p53

Row | melting point | Structure (SMILES) | fold induction at 10 µM [1, 7] | fold induction at 10 µM [1, 8] | other results
1 | 111 to 112 °C | CCCCCSC1=CC(=O)c2ccccc2C1=O [Compound 1e, 2-pentylthio-1,4-naphthoquinone] | – | – | –
2 | 101 to 102 °C | CCCCCCSC1=CC(=O)c2ccccc2C1=O [Compound 1f, 2-hexylthio-1,4-naphthoquinone] | – | – | –
3 | 114 to 115 °C | CCCCCCCSC1=CC(=O)c2ccccc2C1=O [Compound 1g, 2-heptylthio-1,4-naphthoquinone] | – | – | –
4 | 114 to 115 °C | CCCCCCCCSC1=CC(=O)c2ccccc2C1=O [Compound 1h, 2-octylthio-1,4-naphthoquinone] | – | – | –
5 | 105 to 106 °C | CCCCCCCCCSC1=CC(=O)c2ccccc2C1=O [Compound 1i, 2-nonylthio-1,4-naphthoquinone] | – | – | –
6 | 101 to 102 °C | CCCCCCCCCCSC1=CC(=O)c2ccccc2C1=O [Compound 1j, 2-decylthio-1,4-naphthoquinone] | – | – | –
7 | 172 to 173 °C | CCNC1=CC(=O)c2c(OC)ccc(OC)c2C1=O [Compound 5b, 2-ethylamino-5,8-dimethoxy-1,4-naphthoquinone] | – | – | –
8 | 175 to 176 °C | CCCNC1=CC(=O)c2c(OC)ccc(OC)c2C1=O [Compound 5c, 2-propylamino-5,8-dimethoxy-1,4-naphthoquinone] | – | – | –
9 | 104 to 105 °C | CCCCNC1=CC(=O)c2c(OC)ccc(OC)c2C1=O [Compound 5d, 2-butylamino-5,8-dimethoxy-1,4-naphthoquinone] | – | – | –
10 | 102 to 103 °C | CCCCCNC1=CC(=O)c2c(OC)ccc(OC)c2C1=O [Compound 5e, 2-pentylamino-5,8-dimethoxy-1,4-naphthoquinone] | – | – | –
11 | 83 to 84 °C | CCCCCCNC1=CC(=O)c2c(OC)ccc(OC)c2C1=O [Compound 5f, 2-hexylamino-5,8-dimethoxy-1,4-naphthoquinone] | – | – | –
12 | 74 to 75 °C | CCCCCCCNC1=CC(=O)c2c(OC)ccc(OC)c2C1=O [Compound 5g, 2-heptylamino-5,8-dimethoxy-1,4-naphthoquinone] | – | – | –
13 | 81 to 82 °C | CCCCCCCCNC1=CC(=O)c2c(OC)ccc(OC)c2C1=O [Compound 5h, 2-octylamino-5,8-dimethoxy-1,4-naphthoquinone] | – | – | –
14 | – | CCCCCCCCCNC1=CC(=O)c2c(OC)ccc(OC)c2C1=O [Compound 5i, 2-nonylamino-5,8-dimethoxy-1,4-naphthoquinone] | 4.6 | 1.6 | –
15 | – | COc1ccc(OC)c2c1C(=O)C=C(SCCCO)C2=O [Compound 5l, 2-(3-hydroxypropylthio)-5,8-dimethoxy-1,4-naphthoquinone] | 0.1 | 0.6 | –
16 | – | COc1ccc(OC)c2c1C(=O)C=C(SCCCCCCO)C2=O [Compound 5n, 2-(6-hydroxyhexylthio)-5,8-dimethoxy-1,4-naphthoquinone] | 0.2 | 1.1 | –
17 | – | COc1ccc(OC)c2c1C(=O)C=C(SCCC(=O)N1CCN(c3ccccc3)CC1)C2=O [Compound 6a, 5,8-dimethoxy-2-(3-oxo-3-(4-phenylpiperazin-1-yl)propylthio)naphthalene-1,4-dione] | 2.8 | 1.9 | –
18 | – | COc1ccc(OC)c2c1C(=O)C=C(SCCCCCCCCCCC(=O)OCC(C)C)C2=O [Compound 7a, isobutyl-11-(5,8-dimethoxy-1,4-dioxo-1,4-dihydronaphthalene-2-ylthio)undecanoate] | 7.2 | 4.2 | Binding between GST-SNAIL protein and p53 [2]: substantially weak; Cancer cell death rate of compounds with respect to control ([3]; 5 μM): 23 ± 3.4%; Cancer cell death rate of compounds with respect to control ([3]; 20 μM): 45 ± 2.3%; Cancer cell death rate of compounds with respect to control ([4]; 5 μM): 32 ± 2.1%; Cancer cell death rate of compounds with respect to control ([4]; 20 μM): 57 ± 2.8%; Cancer cell death rate of compounds with respect to control ([5]; 5 μM): 1 ± 1.0%; Cancer cell death rate of compounds with respect to control ([5]; 20 μM): 3 ± 2.4%
19 | – | COc1ccc(OC)c2c1C(=O)C=C(SCCCCCCCCCCC(=O)NCC(C)C)C2=O [Compound 7b, 11-(5,8-dimethoxy-1,4-dioxo-1,4-dihydronaphthalene-2-ylthio)-N-isobutyl undecanamide] | – | – | Protein expression ratio of compound to control, p21 [1]: 7.0; Protein expression ratio of compound to control, p53 [1]: 4.6
20 | – | COc1ccc(OC)c2c1C(=O)C=C([S+]([O-])CCCCCCCCCCC(=O)OCC(C)C)C2=O (centres unmarked) [Compound 8, isobutyl 11-(5,8-dimethoxyl-1,4-dioxo-1,4-dihydronaphthalene-2-ylsulfinyl) undecanoate] | – | – | Protein expression ratio of compound to control, p21 [1]: 1.7; Protein expression ratio of compound to control, p53 [1]: 2.3
21 | – | COc1ccc(C2=N[C@@H](c3ccc(Cl)cc3)[C@@H](c3ccc(Cl)cc3)N2C(=O)N2CCNC(=O)C2)c(OC(C)C)c1 [Nutlin-3, reference compound] | – | – | Binding between GST-SNAIL protein and p53 [2]: did not inhibit SNAIL-p53 binding; Cancer cell death rate of compounds with respect to control ([3]; 5 μM): 11 ± 4.0%; Cancer cell death rate of compounds with respect to control ([3]; 10 μM): 19% and 19 ± 4.5%; Cancer cell death rate of compounds with respect to control ([3]; 20 μM): 25 ± 4.7%; Cancer cell death rate of compounds with respect to control ([4]; 5 μM): 21 ± 2.4%; Cancer cell death rate of compounds with respect to control ([4]; 10 μM): 32% and 32 ± 2.9%; Cancer cell death rate of compounds with respect to control ([4]; 20 μM): 40 ± 3.1%; Cancer cell death rate of compounds with respect to control ([5]; 5 μM): 28 ± 2.2%; Cancer cell death rate of compounds with respect to control ([5]; 10 μM): 38% and 38 ± 2.9%; Cancer cell death rate of compounds with respect to control ([5]; 20 μM): 47 ± 2.2%; Expression ratio of gene to control, p21 ([6]; MDA-MB 468, 10 μM): 0.9; Expression ratio of gene to control, p21 ([6]; MDA-MB 468, 20 μM): 1.2; Expression of p21 (target gene of p53) ([6]; p53 mutant-type MDA-MB 468, FIG. 23): did not affect p21

Row | Structure (SMILES) | melting point | fold induction at 10 µM [1, 7] | fold induction at 10 µM [1, 8] | other results
22 | CCCCCCCCCCNC1=CC(=O)c2c(OC)ccc(OC)c2C1=O [Compound 5j, 2-decylamino-5,8-dimethoxy-1,4-naphthoquinone] | 86 to 87 °C | 5 | 1.3 | –
23 | COc1ccc(OC)c2c1C(=O)C=C(SCCO)C2=O [Compound 5k, 2-(2-hydroxyethylthio)-5,8-dimethoxy-1,4-naphthoquinone] | 117 to 118 °C | 0.2 | 0.3 | –
24 | COc1ccc(OC)c2c1C(=O)C=C(SCCCCO)C2=O [Compound 5m, 2-(4-hydroxybutylthio)-5,8-dimethoxy-1,4-naphthoquinone] | 122 to 123 °C | 0.1 | 0.8 | –
25 | COc1ccc(OC)c2c1C(=O)C=C(SCCCCCCCCCCC(=O)O)C2=O [Compound 5p, 11-(5,8-dimethoxy-1,4-dioxo-naphthalen-2-ylthio)undecanoic acid] | 146 to 147 °C | 0.3 | 1.6 | –
